PubChem BioAssay AID2060505 (Molecular Pharmacology Branch, DTP, NCI, 2025)

Tested on: 633275-114-R-J1-PDC complex spheroids, viability
Experiment: Anticancer human tumor 633275-114-R-J1-PDC patient-derived endometrial adenocarcinoma cell line growth inhibition [GQUAD]
Settings: for IC50: curve of first compound; for viability, T/C: stronger effect = lower value
How it was run: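 Viability of tumor cells grown as complex spheroids with endothelial and stromal cells, exposed to drug combinations. Top concentration at or near clinical Cmax (else 10 microM), diluted in half-log increments.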

[1] = second compound 0.0316 µM, first compound 0.0316 µM
[2] = second compound 0.0316 µM, first compound 0.1 µM
[3] = second compound 0.0316 µM, first compound 0.316 µM
[4] = second compound 0.0316 µM, first compound 1 µM
[5] = second compound 0.0316 µM, first compound 3.16 µM
[6] = second compound 0.0316 µM, first compound 10 µM
[7] = second compound 0.1 µM, first compound 0.0316 µM
[8] = second compound 0.1 µM, first compound 0.1 µM
[9] = second compound 0.1 µM, first compound 0.316 µM
[10] = second compound 0.1 µM, first compound 1 µM
[11] = second compound 0.1 µM, first compound 3.16 µM
[12] = second compound 0.1 µM, first compound 10 µM
[13] = second compound 0.316 µM, first compound 0.0316 µM
[14] = second compound 0.316 µM, first compound 0.1 µM
[15] = second compound 0.316 µM, first compound 0.316 µM
[16] = second compound 0.316 µM, first compound 1 µM
[17] = second compound 0.316 µM, first compound 3.16 µM
[18] = second compound 0.316 µM, first compound 10 µM
[19] = second compound 1 µM, first compound 0.0316 µM
[20] = second compound 1 µM, first compound 0.1 µM
[21] = second compound 1 µM, first compound 0.316 µM
[22] = second compound 1 µM, first compound 1 µM
[23] = second compound 1 µM, first compound 3.16 µM
[24] = second compound 1 µM, first compound 10 µM
[25] = second compound 3.16 µM, first compound 0.0316 µM
[26] = second compound 3.16 µM, first compound 0.1 µM
[27] = second compound 3.16 µM, first compound 0.316 µM
[28] = second compound 3.16 µM, first compound 1 µM
[29] = second compound 3.16 µM, first compound 3.16 µM
[30] = second compound 3.16 µM, first compound 10 µM
[31] = second compound 10 µM, first compound 0.0316 µM
[32] = second compound 10 µM, first compound 0.1 µM
[33] = second compound 10 µM, first compound 0.316 µM
[34] = second compound 10 µM, first compound 1 µM
[35] = second compound 10 µM, first compound 3.16 µM
[36] = second compound 10 µM, first compound 10 µM
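Also: spheroids exposed to the agents for seven days.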
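For viability, T/C in this document: percent of DMSO vehicle control viability which is 100%.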

C#Cc1c(F)ccc2cc(O)cc(-c3ncc4c(N5CC6CCC(C5)N6)nc(OCC56CCCN5CC(F)C6)nc4c3F)c12 (stereo unspecified) + Cc1cnc(CNC(=O)c2c(=O)c3ccc(N4CCCN(C)CC4)nc3n3c2sc2ccccc23)cn1 was tested, and the IC50 (second compound 0.0316 µM) was 3910 nM, the IC50 (second compound 0.1 µM) was 157 nM and the IC50 (second compound 0.316 µM) was under 31.6 nM. It also gave an IC50 (second compound 1 µM) of under 31.6 nM, an IC50 (second compound 3.16 µM) of under 31.6 nM and an IC50 (second compound 10 µM) of under 31.6 nM. The viability, T/C [1] was 68.9%, the viability, T/C [2] was 72.5% and the viability, T/C [3] was 65.2%. For the same compound, the viability, T/C [4] was 58.7%, the viability, T/C [5] was 47.1% and the viability, T/C [6] was 45.6%. The viability, T/C [7] was 52.3%, the viability, T/C [8] was 49.7% and the viability, T/C [9] was 52.1%. The viability, T/C [10] was 44.7%, the viability, T/C [11] was 39.8% and the viability, T/C [12] was 38.9%. The viability, T/C [13] was 47.1%, the viability, T/C [14] was 49.8% and the viability, T/C [15] was 43.7%. The viability, T/C [16] was 36.4%, the viability, T/C [17] was 37.2% and the viability, T/C [18] was 26.8%. For the same compound, the viability, T/C [19] was 41.7%, the viability, T/C [20] was 42.1% and the viability, T/C [21] was 42.1%. The viability, T/C [22] was 36.3%, the viability, T/C [23] was 30.9% and the viability, T/C [24] was 26.8%. For the same compound, the viability, T/C [25] was 38.4%, the viability, T/C [26] was 36.2% and the viability, T/C [27] was 34.4%. The viability, T/C [28] was 31.5%, the viability, T/C [29] was 27.7% and the viability, T/C [30] was 24.3%. For the same compound, the viability, T/C [31] was 31.3%, the viability, T/C [32] was 32.9% and the viability, T/C [33] was 26.5%. For the same compound, the viability, T/C [34] was 27.2%, the viability, T/C [35] was 23.7% and the viability, T/C [36] was 23.1%.

Work on CC(=O)O[C@H]1C(=O)[C@@]2(C)[C@H]([C@H](OC(=O)c3ccccc3)[C@]3(O)C[C@H](OC(=O)[C@H](O)[C@@H](NC(=O)c4ccccc4)c4ccccc4)C(C)=C1C3(C)C)[C@]1(OC(C)=O)CO[C@@H]1C[C@@H]2O + Cc1cnc(CNC(=O)c2c(=O)c3ccc(N4CCCN(C)CC4)nc3n3c2sc2ccccc23)cn1 yielded an IC50 (second compound 0.0316 µM) of under 31.6 nM, an IC50 (second compound 0.1 µM) of under 31.6 nM and an IC50 (second compound 0.316 µM) of under 31.6 nM. The IC50 (second compound 1 µM) was under 31.6 nM, the IC50 (second compound 3.16 µM) was under 31.6 nM and the IC50 (second compound 10 µM) was under 31.6 nM. For the same compound, the viability, T/C [1] was 43.8%, the viability, T/C [2] was 30.5% and the viability, T/C [3] was 27.4%. It also gave a viability, T/C [4] of 25.1%, a viability, T/C [5] of 24.9% and a viability, T/C [6] of 25.6%. It also gave a viability, T/C [7] of 42.3%, a viability, T/C [8] of 37.3% and a viability, T/C [9] of 32.8%. For the same compound, the viability, T/C [10] was 35.2%, the viability, T/C [11] was 33.9% and the viability, T/C [12] was 34.1%. It also gave a viability, T/C [13] of 43.5%, a viability, T/C [14] of 39.3% and a viability, T/C [15] of 41.7%. The viability, T/C [16] was 38.2%, the viability, T/C [17] was 35.8% and the viability, T/C [18] was 35.3%. For the same compound, the viability, T/C [19] was 38.5%, the viability, T/C [20] was 37.4% and the viability, T/C [21] was 39.3%. For the same compound, the viability, T/C [22] was 43.2%, the viability, T/C [23] was 35.1% and the viability, T/C [24] was 36.2%. The viability, T/C [25] was 39%, the viability, T/C [26] was 35% and the viability, T/C [27] was 35.8%. For the same compound, the viability, T/C [28] was 39.7%, the viability, T/C [29] was 35.8% and the viability, T/C [30] was 32.6%. The viability, T/C [31] was 31.1%, the viability, T/C [32] was 28.7% and the viability, T/C [33] was 27.5%. The viability, T/C [34] was 31.7%, the viability, T/C [35] was 32.4% and the viability, T/C [36] was 30.8%.

For CC[C@@]1(O)C(=O)OCc2c1cc1n(c2=O)Cc2cc3c(CN(C)C)c(O)ccc3nc2-1 + Cc1cnc(CNC(=O)c2c(=O)c3ccc(N4CCCN(C)CC4)nc3n3c2sc2ccccc23)cn1, the IC50 (second compound 0.0316 µM) was 32.8 nM, the IC50 (second compound 0.1 µM) was 1.27 nM and the IC50 (second compound 0.316 µM) was 1.65 nM. The IC50 (second compound 1 µM) was under 0.999 nM, the IC50 (second compound 3.16 µM) was under 0.999 nM and the IC50 (second compound 10 µM) was under 0.999 nM. It also gave a viability, T/C (second compound 0.0316 µM, first compound 0.000999 µM) of 63.9%, a viability, T/C (second compound 0.0316 µM, first compound 0.00316 µM) of 62.7% and a viability, T/C (second compound 0.0316 µM, first compound 0.00999 µM) of 53.8%. The viability, T/C [1] was 54.5%, the viability, T/C (second compound 0.0316 µM, first compound 0.0999 µM) was 38.4% and the viability, T/C [3] was 32.8%. For the same compound, the viability, T/C (second compound 0.1 µM, first compound 0.000999 µM) was 50.7%, the viability, T/C (second compound 0.1 µM, first compound 0.00316 µM) was 47.6% and the viability, T/C (second compound 0.1 µM, first compound 0.00999 µM) was 47.5%. It also gave a viability, T/C [7] of 42.6%, a viability, T/C (second compound 0.1 µM, first compound 0.0999 µM) of 41% and a viability, T/C [9] of 36.5%. It also gave a viability, T/C (second compound 0.316 µM, first compound 0.000999 µM) of 49.7%, a viability, T/C (second compound 0.316 µM, first compound 0.00316 µM) of 49.1% and a viability, T/C (second compound 0.316 µM, first compound 0.00999 µM) of 48.5%. The viability, T/C [13] was 40.1%, the viability, T/C (second compound 0.316 µM, first compound 0.0999 µM) was 34.7% and the viability, T/C [15] was 33.4%. For the same compound, the viability, T/C (second compound 1 µM, first compound 0.000999 µM) was 40%, the viability, T/C (second compound 1 µM, first compound 0.00316 µM) was 40.6% and the viability, T/C (second compound 1 µM, first compound 0.00999 µM) was 39.1%. The viability, T/C [19] was 40.5%, the viability, T/C (second compound 1 µM, first compound 0.0999 µM) was 39.9% and the viability, T/C [21] was 35.2%. For the same compound, the viability, T/C (second compound 3.16 µM, first compound 0.000999 µM) was 38.4%, the viability, T/C (second compound 3.16 µM, first compound 0.00316 µM) was 37.9% and the viability, T/C (second compound 3.16 µM, first compound 0.00999 µM) was 37.7%. The viability, T/C [25] was 33.1%, the viability, T/C (second compound 3.16 µM, first compound 0.0999 µM) was 35.9% and the viability, T/C [27] was 29.9%. It also gave a viability, T/C (second compound 10 µM, first compound 0.000999 µM) of 31.7%, a viability, T/C (second compound 10 µM, first compound 0.00316 µM) of 35.8% and a viability, T/C (second compound 10 µM, first compound 0.00999 µM) of 29.8%. For the same compound, the viability, T/C [31] was 31.9%, the viability, T/C (second compound 10 µM, first compound 0.0999 µM) was 32.7% and the viability, T/C [33] was 28.4%.
